Assay results as given in US20260062422A1 (Halda Therapeutics OpCo, Inc., priority 2022, published 2026).

Key:
[1] = system: T-Rex 293 cell line SC3 cells having increased expression of androgen receptor protein due to exposure to doxycycline; experiment: Cellular growth inhibition, T-Rex 293 SC3 cells with doxycycline (androgen receptor induced), CellTiter-Glo; type: cell-based; details: 72 h, T-Rex 293 SC3 cells with 10 ng/mL doxycycline (increased androgen receptor expression)
How it was run: (§1)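 Luminescence read-out (CellTiter-Glo 2.0) after 72 h compound exposure; GI50 by four-parameter nonlinear regression, baseline set at zero luminescence. SC3 cells, a doxycycline-inducible wild-type AR clone of T-Rex 293, were cultured ±10 ng/mL doxycycline in charcoal-dextran FBS medium.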

[2] = system: T-Rex 293 cell line SC3 cells lacking increased expression of androgen receptor protein; experiment: Cellular growth inhibition, T-Rex 293 SC3 cells without doxycycline, CellTiter-Glo; type: cell-based; details: 72 h, T-Rex 293 SC3 cells not exposed to doxycycline, CellTiter-Glo 2.0
How it was run: as §1

[3] = system: VCaP cells; experiment: Cellular growth inhibition assay for VCaP cells, CellTiter-Glo; type: cell-based, human; details: Homo sapiens, VCaP, 72 h, 72 hours treatment, CellTiter-Glo 2.0
How it was run: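 GI50 values come from four-parameter curve fits of luminescence data normalized to a zero baseline. Compound, in medium with 0.5% DMSO, was added one day after plating and left for 72 h before CellTiter-Glo 2.0 addition.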

SMILES | GI50 [3] [nM] | GI50 [1] [nM] | GI50 [2] [nM]
CCNC(=O)C[C@@H]1N=C(c2ccc(OCCCC#Cc3ncc(C(=O)N[C@H]4C(C)(C)[C@H](Oc5ccc(C#N)c(Cl)c5)C4(C)C)cn3)cc2)c2c(sc(C)c2C)-n2c(C)nnc21 [Compound I-83] | 500 to 1500 | < 500 | 500 to 1500
Cc1sc2c(c1C)C(c1ccc(Cl)cc1)=N[C@H](CC(=O)NCCOCCOCCOCCOCCN(C)c1ncc(C(=O)N[C@H]3C(C)(C)[C@H](Oc4ccc(C#N)c(Cl)c4)C3(C)C)cn1)c1nnc(C)n1-2 [Compound I-19] | > 3000 | > 3000 | > 3000
Cc1sc2c(c1C)C(c1ccc(OCCOC3CCN(c4ncc(C(=O)N[C@H]5C(C)(C)[C@H](Oc6ccc(C#N)c(Cl)c6)C5(C)C)cn4)CC3)cc1)=N[C@@H](CC(=O)O)c1nnc(C)n1-2 [Compound I-38] | > 3000 | 500 to 1500 | > 3000
Cc1sc2c(c1C)C(c1cccc(OCCOCCOCCOC3CCN(c4ncc(C(=O)N[C@H]5C(C)(C)[C@H](Oc6ccc(C#N)c(Cl)c6)C5(C)C)cn4)CC3)c1)=N[C@@H](CC(=O)O)c1nnc(C)n1-2 [Compound I-43] | > 3000 | > 3000 | > 3000
Cc1sc2c(c1C)C(c1ccc(N3CC(C4CCN(c5ncc(C(=O)N[C@H]6C(C)(C)[C@H](Oc7ccc(C#N)c(Cl)c7)C6(C)C)cn5)CC4)C3)cc1)=N[C@@H](C)c1nnc(C)n1-2 [Compound I-271] | > 3000 | < 500 | > 3000
Cc1sc2c(c1C)C(c1ccc(C#CCN3CCN(c4ncc(C(=O)N[C@H]5C(C)(C)[C@H](Oc6ccc(C#N)c(Cl)c6)C5(C)C)cn4)CC3)cc1)=N[C@@H](CC(=O)OC(C)(C)C)c1nnc(C)n1-2 [Compound I-55] | > 3000 | < 500 | > 3000
CCNC(=O)C[C@@H]1N=C(c2ccc(CCCN(C)c3ncc(C(=O)N[C@H]4C(C)(C)[C@H](Oc5ccc(C#N)c(Cl)c5)C4(C)C)cn3)cc2)c2c(sc(C)c2C)-n2c(C)nnc21 [Compound I-104] | > 3000 | < 500 | < 500
CCNC(=O)C[C@@H]1N=C(c2ccc(OCCOC3CCN(c4ncc(C(=O)N[C@H]5C(C)(C)[C@H](Oc6ccc(C#N)c(Cl)c6)C5(C)C)cn4)CC3)cc2F)c2c(sc(C)c2C)-n2c(C)nnc21 [Compound I-75] | < 500 | < 500 | 500 to 1500
CCNC(=O)C[C@@H]1N=C(c2ccc(N3CCC(CN4CC(Oc5ncc(C(=O)N[C@H]6C(C)(C)[C@H](Oc7ccc(C#N)c(Cl)c7)C6(C)C)cn5)C4)CC3)cc2)c2c(sc(C)c2C)-n2c(C)nnc21 [Compound I-124] | 500 to 1500 | < 500 | 1500 to 3000
Cc1sc2c(c1C)C(c1ccc(O[C@H]3CC[C@@]4(CCCN(c5ncc(C(=O)N[C@H]6C(C)(C)[C@H](Oc7ccc(C#N)c(Cl)c7)C6(C)C)cn5)C4)CC3)cc1)=N[C@@H](Cc1ncco1)c1nnc(C)n1-2 [Compound I-172] | 500 to 1500 | < 500 | 500 to 1500
Cc1sc2c(c1C)C(c1ccc(Cl)cc1)=N[C@@H](CC(=O)NCCOCCOCCOCCOC1CCN(c3ncc(C(=O)N[C@H]4C(C)(C)[C@H](Oc5ccc(C#N)c(Cl)c5)C4(C)C)cn3)CC1)c1nnc(C)n1-2 [Compound I-11] | < 500 | < 500 | 1500 to 3000
CCNC(=O)C[C@@H]1N=C(c2cccc(OCCOCCOC3CCN(c4ncc(C(=O)N[C@H]5C(C)(C)[C@H](Oc6ccc(C#N)c(Cl)c6)C5(C)C)cn4)CC3)c2)c2c(sc(C)c2C)-n2c(C)nnc21 [Compound I-47, N-((1r,3r)-3-(3-chloro-4-cyanophenoxy)-2,2,4,4-tetramethylcyclobutyl)-2-(4-(2-(2-(3-((S)-6-(2-(ethylamino)-2-oxoethyl)-2,3,9-trimethyl-6H-thieno[3,2-f][1,2,4]triazolo[4,3-a][1,4]diazepin-4-yl)phenoxy)ethoxy)ethoxy)piperidin-1-yl)pyrimidine-5-carboxamide] | 500 to 1500 | < 500 | 500 to 1500
Cc1sc2c(c1C)C(c1ccc(CCCOC3CCN(c4ncc(C(=O)N[C@H]5C(C)(C)[C@H](Oc6ccc(C#N)c(Cl)c6)C5(C)C)cn4)CC3)cc1)=N[C@@H](CC(=O)NC1CC1)c1nnc(C)n1-2 [Compound I-102] | < 500 | < 500 | > 3000
CCNC(=O)C[C@@H]1N=C(c2ccc(N(C)CCN3CCN(c4ncc(C(=O)N[C@H]5C(C)(C)[C@H](Oc6ccc(C#N)c(Cl)c6)C5(C)C)cn4)CC3)cc2)c2c(sc(C)c2C)-n2c(C)nnc21 [Compound I-108] | 500 to 1500 | < 500 | < 500
Cc1sc2c(c1C)C(c1ccc(Cl)cc1)=N[C@@H](CC(=O)NCCCN1CCN(CCCOC3CCN(c4ncc(C(=O)N[C@H]5C(C)(C)[C@H](Oc6ccc(C#N)c(Cl)c6)C5(C)C)cn4)CC3)CC1)c1nnc(C)n1-2 [Compound I-10] | < 500 | < 500 | 1500 to 3000
Cc1sc2c(c1C)C(c1ccc(OCCOCCOCCOC3CCN(c4ncc(C(=O)N[C@H]5C(C)(C)[C@H](Oc6ccc(C#N)c(Cl)c6)C5(C)C)cn4)CC3)cc1)=N[C@@H](CC(=O)O)c1nnc(C)n1-2 [Compound I-40] | > 3000 | > 3000 | > 3000
Cc1sc2c(c1C)C(c1ccc(N3CC(CC4CCN(c5ncc(C(=O)N[C@H]6C(C)(C)[C@H](Oc7ccc(C#N)c(Cl)c7)C6(C)C)cn5)CC4)C3)cc1)=N[C@@H](C)c1nnc(C)n1-2 [Compound I-270] | 1500 to 3000 | < 500 | > 3000
Cc1sc2c(c1C)C(c1ccc(C[C@H]3C[C@@H]([C@@H]4CCCN(c5ncc(C(=O)N[C@H]6C(C)(C)[C@H](Oc7ccc(C#N)c(Cl)c7)C6(C)C)cn5)C4)C3)cc1)=N[C@@H](Cc1ncco1)c1nnc(C)n1-2 [Compound I-161] | < 500 | < 500 | 500 to 1500

More lines, main results first:

GI50 [3] [nM] | SMILES | GI50 [1] [nM] | GI50 [2] [nM]
< 500 | Cc1sc2c(c1C)C(c1ccc(Cl)cc1)=N[C@H](CC(=O)NCCOCCOCCOCCOCCOCCOCCOC1CCN(c3ncc(C(=O)N[C@H]4C(C)(C)[C@H](Oc5ccc(C#N)c(Cl)c5)C4(C)C)cn3)CC1)c1nnc(C)n1-2 [Compound I-9] | < 500 | 1500 to 3000
< 500 | CCNC(=O)C[C@@H]1N=C(c2ccc(OCCOC3CCN(c4ncc(C(=O)N[C@H]5C(C)(C)[C@H](Oc6ccc(C#N)c(Cl)c6)C5(C)C)cn4)CC3)c(F)c2F)c2c(sc(C)c2C)-n2c(C)nnc21 [Compound I-73] | < 500 | 500 to 1500
< 500 | Cc1sc2c(c1C)C(c1ccc(Cl)cc1)=N[C@@H](CC(=O)NCCCCCCCOC1CCN(c3ncc(C(=O)N[C@H]4C(C)(C)[C@H](Oc5ccc(C#N)c(Cl)c5)C4(C)C)cn3)CC1)c1nnc(C)n1-2 [Compound I-24] | < 500 | > 3000
< 500 | Cc1sc2c(c1C)C(c1ccc(C#CC3CC4(CCN(c5ncc(C(=O)N[C@H]6C(C)(C)[C@H](Oc7ccc(C#N)c(Cl)c7)C6(C)C)cn5)CC4)C3)cc1)=N[C@@H](Cc1ncco1)c1nnc(C)n1-2 [Compound I-267] | < 500 | < 500
< 500 | Cc1sc2c(c1C)C(c1ccc(Cl)cc1)=N[C@@H](CC(=O)NCCCN1CCN(CCCN(C)c3ncc(C(=O)N[C@H]4C(C)(C)[C@H](Oc5ccc(C#N)c(Cl)c5)C4(C)C)cn3)CC1)c1nnc(C)n1-2 [Compound I-5, N-((1r,3r)-3-(3-chloro-4-cyanophenoxy)-2,2,4,4-tetramethylcyclobutyl)-2-((3-(4-(3-(2-((S)-4-(4-chlorophenyl)-2,3,9-trimethyl-6H-thieno[3,2-f][1,2,4]triazolo[4,3-a][1,4]diazepin-6-yl)acetamido)propyl)piperazin-1-yl)propyl)(methyl)amino)pyrimidine-5-carboxamide] | < 500 | > 3000
< 500 | CCNC(=O)C[C@@H]1N=C(c2ccc(OCCCN(C)c3ncc(C(=O)N[C@H]4C(C)(C)[C@H](Oc5ccc(C#N)c(Cl)c5)C4(C)C)cn3)cc2)c2c(sc(C)c2C)-n2c(C)nnc21 [Compound I-81] | < 500 | 500 to 1500
< 500 | Cc1sc2c(c1C)C(c1ccc(C3CC3C3CC4(CCN(c5ncc(C(=O)N[C@H]6C(C)(C)[C@H](Oc7ccc(C#N)c(Cl)c7)C6(C)C)cn5)CC4)C3)cc1)=N[C@@H](Cc1ncco1)c1nnc(C)n1-2 (stereo partly drawn) [Compound I-237] | < 500 | > 3000
< 500 | CCNC(=O)C[C@@H]1N=C(c2ccc(N3CCC(N(C)C4CN(c5ncc(C(=O)N[C@H]6C(C)(C)[C@H](Oc7ccc(C#N)c(Cl)c7)C6(C)C)cn5)C4)CC3)cc2)c2c(sc(C)c2C)-n2c(C)nnc21 [Compound I-123] | < 500 | 500 to 1500
< 500 | CCN(C)C(=O)C[C@@H]1N=C(c2ccc(OCCOC3CCN(c4ncc(C(=O)N[C@H]5C(C)(C)[C@H](Oc6ccc(C#N)c(Cl)c6)C5(C)C)cn4)CC3)cc2)c2c(sc(C)c2C)-n2c(C)nnc21 [Compound I-66] | < 500 | < 500
< 500 | Cc1sc2c(c1C)C(c1ccc(Cl)cc1)=N[C@@H](CC(=O)NCCOCCOCCOCCOCCOCCOCCN(C)c1ncc(C(=O)N[C@H]3C(C)(C)[C@H](Oc4ccc(C#N)c(Cl)c4)C3(C)C)cn1)c1nnc(C)n1-2 [Compound I-4] | < 500 | > 3000
< 500 | Cc1sc2c(c1C)C(c1ccc(N3CC(C4CCN(c5ncc(C(=O)N[C@H]6C(C)(C)[C@H](Oc7ccc(C#N)c(Cl)c7)C6(C)C)cn5)CC4)C3)cc1)=NC(Cc1ncco1)c1nnc(C)n1-2 (stereo partly drawn) [Compound I-209] | < 500 | > 3000
